Laboratory results from the supplement of paper PMC4862054.

Assays:
Conditions in all cases: incubation time: 72 h
[1] = tested on: MDA-MB-468; test: normalised viability (% of control), CellTiter-Blue; higher = more viable cells (about 100 = DMSO control)
Procedure, shortened: (§1)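 Compound dissolved in 5 µl medium was pre-loaded into 384-well plates, and breast cancer cell lines in 20 µl suspension were seeded on top and incubated 72 h. After adding 2.5 µl CellTiter-Blue reagent for 2 h at 37 °C, fluorescence was read at 560/590 nm. Plates were normalised to vehicle (100) and a positive kill control (0), with Z'-factor quality control. Each value is normalised viability at a single listed concentration from the series.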

[2] = tested on: HDQ-P1; test: as above
Procedure, shortened: as §1

[3] = tested on: BT-549; test: as above
Procedure, shortened: as §1

[4] = tested on: MFM-223; test: as above
Procedure, shortened: as §1

[5] = tested on: Hs578T; test: as above
Procedure, shortened: as §1

[6] = tested on: CAL-85-1; test: as above
Procedure, shortened: as §1

[7] = tested on: BT-474; test: as above
Procedure, shortened: as §1

[8] = tested on: MDA-MB-231; test: as above
Procedure, shortened: as §1

[9] = tested on: HCC1599; test: as above
Procedure, shortened: as §1

[10] = tested on: HCC1143; test: as above
Procedure, shortened: as §1

[11] = tested on: MDA-MB-453; test: as above
Procedure, shortened: as §1

[12] = tested on: CAL-148; test: as above
Procedure, shortened: as §1

[13] = tested on: CAL-120; test: as above
Procedure, shortened: as §1

[14] = tested on: CAL-51; test: as above
Procedure, shortened: as §1

[15] = tested on: MDA-MB-436; test: as above
Procedure, shortened: as §1

[16] = tested on: SK-BR-3; test: as above
Procedure, shortened: as §1

[17] = tested on: BT-549; test: drug sensitivity score (DSS), CellTiter-Glo (DSS (AUC-based score)); higher = stronger drug effect (viability inhibition or cytotoxicity); extreme values may be limits of the assay
Procedure, shortened: (§2)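 Compound was dispensed into 384-well plates at 5 concentrations in 10-fold steps spanning a 10,000-fold range chosen for each compound, and 20 µl of breast cancer cell suspension was added before 72 h of incubation. CellTox Green fluorescence was read at 485/520 nm, followed by CellTiter-Glo luminescence after 10 min at room temperature. Values on each plate were normalised to 0.1 % DMSO and a positive kill control. The drug sensitivity score came from the area under the fitted dose-response curve.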

[18] = tested on: CAL-85-1; test: as above
Procedure, shortened: as §2

[19] = tested on: HCC1599; test: as above
Procedure, shortened: as §2

[20] = tested on: MCF-10A; test: as above
Procedure, shortened: as §2

[21] = tested on: HCC1143; test: as above
Procedure, shortened: as §2

[22] = tested on: CAL-148; test: as above
Procedure, shortened: as §2

[23] = tested on: CAL-51; test: as above
Procedure, shortened: as §2

[24] = tested on: MDA-MB-436; test: as above
Procedure, shortened: as §2

c1ccc2c(CCNc3ccc(Nc4ccncc4)cc3)c[nH]c2c1 [Serdemetan]
normalised viability [%]
Conditions	3 nM	10 nM	30 nM	100 nM	1000 nM	10000 nM
[1]	–	111	–	–	103	60.9
[2]	97.5	–	99.7	96.7	–	–
[3]	–	95.6	–	–	81.5	26.5
[4]	–	83.2	–	–	104	66.4
[5]	–	108	–	–	91.5	66.8
[6]	93.3	–	85.8	84.5	–	–
[7]	–	106	–	–	106	94.4
[8]	–	88.4	–	–	89.5	58.2
[9]	–	103	–	–	93.8	74.6
[10]	–	87.7	–	–	77.7	43.3
[11]	119	–	93.8	104	–	–
[12]	88.9	–	86.1	96.3	–	–
[13]	–	88	–	–	91.4	48.1
[14]	118	–	106	108	–	–
[15]	–	96.8	–	–	51.4	43.6
[16]	–	96.6	–	–	116	72.2

Conditions	drug sensitivity score
[17]	6.83
[18]	1.35
[19]	3.17
[20]	0
[21]	0
[22]	7.11
[23]	15.9
[24]	2.94

S=P(N1CC1)(N1CC1)N1CC1 [Thio-TEPA]
normalised viability [%]
Conditions	30 nM	100 nM	300 nM	1000 nM	10000 nM	100000 nM
[1]	–	104	–	–	107	95.3
[2]	111	–	115	104	–	–
[3]	–	95.2	–	–	119	116
[4]	–	105	–	–	106	104
[5]	–	115	–	–	95.6	109
[6]	99.9	–	96.4	102	–	–
[7]	–	119	–	–	114	115
[8]	–	103	–	–	83.2	64.4
[9]	–	97.8	–	–	82.7	94.7
[10]	–	109	–	–	95.9	81.7
[11]	111	–	113	104	–	–
[12]	93.8	–	92.7	105	–	–
[13]	–	90.7	–	–	86.8	93.7
[14]	95.4	–	97.1	97.4	–	–
[15]	–	110	–	–	87.7	123
[16]	–	102	–	–	99.3	97.1

Conditions	drug sensitivity score
[17]	1.83
[18]	0
[19]	0
[20]	0
[21]	0
[22]	0
[23]	0
[24]	0

CN(C)CCOc1ccc(/C(=C(/CCCl)c2ccccc2)c2ccccc2)cc1 [Toremifene]
normalised viability [%]
Conditions	3 nM	10 nM	30 nM	100 nM	1000 nM	10000 nM
[1]	–	104	–	–	109	17.9
[2]	108	–	109	113	–	–
[3]	–	106	–	–	113	88.1
[4]	–	98.1	–	–	96.1	71.8
[5]	–	122	–	–	109	94.6
[6]	99.2	–	92.9	95.8	–	–
[7]	–	132	–	–	119	92.4
[8]	–	95.8	–	–	101	108
[9]	–	127	–	–	97.5	89.6
[10]	–	92.5	–	–	97.3	102
[11]	126	–	91.4	112	–	–
[12]	94	–	97.6	108	–	–
[13]	–	85.2	–	–	96.1	79.1
[14]	107	–	98.4	110	–	–
[15]	–	99	–	–	96.3	71.1
[16]	–	113	–	–	107	91.4

Conditions	drug sensitivity score
[17]	0
[18]	0
[19]	0
[20]	1.79
[21]	0
[22]	0
[23]	0
[24]	0
